Test results published in patent US11332470B2, “CXCR4 inhibitors and uses thereof” (X4 Pharmaceuticals, Inc., priority 2016, dated 2022).

What was measured:
CXCR4 (U87.CXCR4 cells) = biological target: T1, CXCR4 (U87.CXCR4 cells) (Homo sapiens, UniProt P61073); test: Intracellular CXCL-12-induced calcium mobilization assay (FLIPR); format: cell-based; conditions: CXCL-12 25-50 ng/mL, read-out: IC50 CXCL-12 Ca2+ flux U87.CXCR4+
T1 construct: expressed in transfected cells; host or cells: U87 (U87.CXCR4)
Summary of the method: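 U87.CXCR4 cells were loaded with 4 μM Fluo-2 AM for 45 min at 37 °C in HBSS/20 mM HEPES/0.2% BSA, pH 7.4. Calcium flux induced by CXCL-12 (25-50 ng/mL) was monitored kinetically by FLIPR fluorescence at 37 °C.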

[1] = biological target: T2, CXCR4 (Jurkat cells expressing CXCR4) (Homo sapiens, UniProt P61073); test: Chemokine (CXCL12-AF647) binding inhibition assay; conditions: CXCL12-AF647 25 ng/mL, read-out: IC50 CXCL-12 binding Jurkat
T2 construct: Jurkat cells expressing CXCR4; endogenous in cells; host or cells: Jurkat
Summary of the method: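 Cells in HBSS, 20 mM HEPES, 0.2% BSA, pH 7.4, preincubated 15 min at room temperature with compound, then 25 ng/mL CXCL12-AF647 for 30 min. After washing and paraformaldehyde fixation, bound ligand read by flow cytometry; percent inhibition calculated from MFI relative to unlabeled and ligand-only controls.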

in vitro = conditions: human, Caco-2, pH 7.4
Summary of the method: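 Compound at 10 μM in HBSS pH 7.4 dosed A-to-B and B-to-A across Caco-2 monolayers, 90 min at 37 °C, duplicates. Monolayer integrity by TEER and lucifer yellow (5 μM, fluorescence 485/535 nm); compound quantified by LC-MS/MS.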

T2 sequence (P61073 whole entry): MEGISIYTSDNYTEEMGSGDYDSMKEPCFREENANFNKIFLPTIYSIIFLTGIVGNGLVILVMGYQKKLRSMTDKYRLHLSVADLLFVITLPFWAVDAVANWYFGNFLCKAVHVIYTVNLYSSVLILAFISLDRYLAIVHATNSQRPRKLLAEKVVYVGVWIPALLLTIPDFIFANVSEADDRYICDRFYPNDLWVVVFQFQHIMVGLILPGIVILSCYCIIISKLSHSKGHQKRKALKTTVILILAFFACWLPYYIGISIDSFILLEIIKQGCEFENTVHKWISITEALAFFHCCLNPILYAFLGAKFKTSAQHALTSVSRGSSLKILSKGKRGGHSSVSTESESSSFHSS
T1 sequence (P61073 whole entry): as above

SMILES	IC50 (CXCR4 (U87.CXCR4 cells)) [nM]	IC50 [1] [nM]	Papp A→B at 90 min, 10 μM (in vitro) [×10⁻⁶ cm/s]	Papp B→A at 90 min, 10 μM (in vitro) [×10⁻⁶ cm/s]	efflux ratio at 90 min, 10 μM (in vitro)
CN1CCN(c2c(CN3CCCC3c3ccccn3)nc3ccccn23)CC1=O (centres unmarked) [Compound I-85]	≥ 1000	100 to 1000	0.1 to 10	> 30	0.1 to 10
Cc1cccnc1C1CCCN1Cc1ncccc1CN1CCOCC1 (centres unmarked) [Compound I-118]	≥ 1000	100 to 1000	0.1 to 10	> 30	0.1 to 10
CN1CCC(n2c(CN3CCCC3c3ccccn3)nc3ccccc32)CC1 (centres unmarked) [Compound I-54]	100 to 1000	0.01 to 100	10 to 30	10 to 30	0.1 to 10
CN1CCN(c2cccnc2CN2CCCC2c2ccccn2)CC1 (centres unmarked) [Compound I-56]	≥ 1000	100 to 1000	10 to 30	10 to 30	0.1 to 10
Cc1cccnc1C1CCCN1Cc1cn2c(N3CCN(C)CC3)cccc2n1 (centres unmarked) [Compound I-6, 5-(4-methylpiperazin-1-yl)-2-((2-(3-methylpyridin-2-yl)pyrrolidin-1-yl)methyl)imidazo[1,2-a]-pyridine]	0.01 to 100	0.01 to 100	0.1 to 10	10 to 30	10 to 30
CN1CCN(c2c(CN3CCCC3c3ncccc3F)nc3ccccn23)CC1 (centres unmarked) [Compound I-60]	0.01 to 100	0.01 to 100	10 to 30	10 to 30	0.1 to 10
Cc1cccnc1C1CCCN1Cc1nc2c(N3CCN(C)CC3)cccc2[nH]1 (centres unmarked) [Compound I-11]	0.01 to 100	0.01 to 100	0.1 to 10	10 to 30	0.1 to 10
Cc1cccnc1C1CCCN1Cc1ncccc1CC1CCN(C)CC1 (centres unmarked) [Compound I-117]	0.01 to 100	0.01 to 100	0.1 to 10	> 30	> 30
CN1CC=C(c2c(CN3CCCC3c3ccccn3)nc3ccccn23)CC1 (centres unmarked) [Compound I-79]	0.01 to 100	0.01 to 100	0.1 to 10	> 30	0.1 to 10
Cc1cccnc1C1CCCN1Cc1nccn1CC1CCN(C)CC1 (centres unmarked) [Compound I-52]	0.01 to 100	0.01 to 100	0.1 to 10	10 to 30	0.1 to 10
CN1CCN(c2c(CN3CCCC3c3ccc(F)cn3)nc3ccccn23)CC1 (centres unmarked) [Compound I-76]	0.01 to 100	0.01 to 100	10 to 30	0.1 to 10	0.1 to 10
CN1CCN(c2c(CN3CCCC3c3ncc[nH]3)nc3ccccn23)CC1 (centres unmarked) [Compound I-68]	≥ 1000	100 to 1000	0.1 to 10	10 to 30	0.1 to 10
CN1CCN(c2c(C3CCCN3Cc3ccccn3)nc3ccccn23)CC1 (centres unmarked) [Compound I-101]	100 to 1000	0.01 to 100	0.1 to 10	> 30	0.1 to 10
Cc1cccnc1C1CCCN1Cc1ccccn1 (centres unmarked) [Compound I-39]	≥ 1000	100 to 1000	10 to 30	10 to 30	0.1 to 10
Cc1cccnc1C1CCCN1Cc1nccn1CC1CCOCC1 (centres unmarked) [Compound I-110]	≥ 1000	100 to 1000	10 to 30	> 30	0.1 to 10
CN1CCN(c2c(CN3CCCC3c3ccccn3)nc3c(F)cccn23)CC1 (centres unmarked) [Compound I-61]	100 to 1000	0.01 to 100	10 to 30	10 to 30	0.1 to 10
Cc1cccnc1C1CCCN1Cc1ccccc1-n1cccn1 (centres unmarked) [Compound I-4, 2-(1-(2-(1H-pyrazol-1-yl)benzyl)pyrrolidin-2-yl)-3-methylpyridine]	100 to 1000	≥ 1000	> 30	10 to 30	0.1 to 10
Cc1cccnc1C1CCCN1Cc1nccn1Cc1ccncc1 (centres unmarked) [Compound I-87]	≥ 1000	100 to 1000	10 to 30	10 to 30	0.1 to 10
Cc1cccnc1C1CCCN1Cc1nccn1Cc1cccnc1 (centres unmarked) [Compound I-88]	≥ 1000	100 to 1000	10 to 30	10 to 30	0.1 to 10
Cc1cccnc1CN1CCCC1c1nccn1CC1CCN(C)CC1 (centres unmarked) [Compound I-92]	100 to 1000	0.01 to 100	0.1 to 10	10 to 30	0.1 to 10
O=C1CN(c2c(CN3CCCC3c3ccccn3)nc3ccccn23)CCN1 (centres unmarked) [Compound I-86]	≥ 1000	≥ 1000	0.1 to 10	10 to 30	10 to 30
c1ccc(C2CCCN2Cc2nc3ccccn3c2N2CCOCC2)nc1 (centres unmarked) [Compound I-91]	≥ 1000	100 to 1000	> 30	> 30	0.1 to 10
Cc1cccnc1C1CCCN1Cc1nc2ccccn2c1CN1CCOCC1 (centres unmarked) [Compound I-119]	100 to 1000	0.01 to 100	0.1 to 10	> 30	10 to 30
CN1CCN(c2cccc3nc(CN4CCCC4c4ncccc4Cl)cn23)CC1 (centres unmarked) [Compound I-27]	100 to 1000	0.01 to 100	0.1 to 10	10 to 30	0.1 to 10
c1ccc(C2CCCN2Cc2nc3ccccn3c2N2CCN(c3ccccn3)CC2)nc1 (centres unmarked) [Compound I-97]	100 to 1000	0.01 to 100	> 30	> 30	0.1 to 10
